± gives the expanded uncertainty stated by the source.
Conditions: 101 kPa, Liquid mixture 1

Row | SMILES | interfacial tension (293.2 K, Drop weight) | interfacial tension (298.2 K, Drop weight) | interfacial tension (303.2 K, Drop weight) | interfacial tension (308.2 K, Drop weight) | interfacial tension (313.2 K, Drop weight) | interfacial tension (318.2 K, Drop weight) | interfacial tension (323.2 K, Drop weight) | interfacial tension (328.2 K, Drop weight) | interfacial tension (333.2 K, Drop weight) | interfacial tension (343.2 K, Drop weight) | interfacial tension (338.2 K, Drop weight) | interfacial tension (293.2 K) | interfacial tension (298.2 K) | interfacial tension (303.2 K) | interfacial tension (313.2 K) | interfacial tension (323.2 K) | interfacial tension (333.2 K) | interfacial tension (343.2 K)
1 | CCCCCC [hexane] + O | 50.81 ± 0.46 mN/m | 50.49 ± 0.45 mN/m | 50.11 ± 0.45 mN/m | 49.68 ± 0.45 mN/m | 49.28 ± 0.44 mN/m | 48.84 ± 0.44 mN/m | 48.46 ± 0.44 mN/m | 47.94 ± 0.43 mN/m | 46.92 ± 0.43 mN/m | – | – | – | – | – | – | – | – | –
2 | CCCCCCCCO [octan-1-ol] + O | 8.02 ± 0.13 mN/m | 8.19 ± 0.13 mN/m | 8.42 ± 0.13 mN/m | – | 8.62 ± 0.13 mN/m | – | 8.83 ± 0.13 mN/m | – | 9.02 ± 0.13 mN/m | 9.02 ± 0.13 mN/m | – | – | – | – | – | – | – | –
3 | CCCCCCC [heptane] + O | 51.3 ± 0.46 mN/m | 50.87 ± 0.46 mN/m | 50.35 ± 0.45 mN/m | 49.84 ± 0.45 mN/m | 49.6 ± 0.45 mN/m | 49 ± 0.44 mN/m | 48.54 ± 0.44 mN/m | 48.1 ± 0.44 mN/m | 47.73 ± 0.43 mN/m | 46.7 ± 0.42 mN/m | 47.28 ± 0.43 mN/m | – | – | – | – | – | – | –
4 | CCCCCCCCC [nonane] + O | 51.95 ± 0.46 mN/m | 51.54 ± 0.46 mN/m | 51.11 ± 0.46 mN/m | 50.68 ± 0.46 mN/m | 50.23 ± 0.45 mN/m | 49.63 ± 0.45 mN/m | 49.09 ± 0.44 mN/m | 48.46 ± 0.44 mN/m | 48.03 ± 0.43 mN/m | 46.96 ± 0.43 mN/m | 47.61 ± 0.43 mN/m | – | – | – | – | – | – | –
5 | CCCCCCCCCO [nonan-1-ol] + O | – | – | – | – | – | – | – | – | – | – | – | 8.18 ± 0.25 mN/m | 8.48 ± 0.26 mN/m | 9 ± 0.26 mN/m | 9.15 ± 0.27 mN/m | 9.86 ± 0.28 mN/m | 9.67 ± 0.27 mN/m | 9.72 ± 0.27 mN/m
6 | c1ccccc1 [benzene] + O | 34.82 ± 0.33 mN/m | 34.06 ± 0.33 mN/m | 33.64 ± 0.32 mN/m | 32.87 ± 0.32 mN/m | 32.1 ± 0.31 mN/m | 31.62 ± 0.31 mN/m | 30.95 ± 0.3 mN/m | 30.92 ± 0.3 mN/m | 30.52 ± 0.3 mN/m | – | – | – | – | – | – | – | – | –
7 | CCCCCCO [hexan-1-ol] + O | 7.37 ± 0.12 mN/m | 7.49 ± 0.13 mN/m | 7.6 ± 0.13 mN/m | – | 7.7 ± 0.13 mN/m | – | 7.86 ± 0.13 mN/m | – | 7.9 ± 0.13 mN/m | 7.87 ± 0.13 mN/m | – | – | – | – | – | – | – | –
8 | CCCCCCCO [heptan-1-ol] + O | 6.37 ± 0.12 mN/m | 6.44 ± 0.12 mN/m | 6.52 ± 0.12 mN/m | – | 6.6 ± 0.12 mN/m | – | 6.62 ± 0.12 mN/m | – | 6.58 ± 0.12 mN/m | 6.46 ± 0.12 mN/m | – | – | – | – | – | – | – | –
9 | CCCCCCCC [octane] + O | 51.67 ± 0.46 mN/m | 51.2 ± 0.46 mN/m | 50.78 ± 0.46 mN/m | 50.28 ± 0.45 mN/m | 49.9 ± 0.45 mN/m | 49.31 ± 0.44 mN/m | 48.86 ± 0.44 mN/m | 48.34 ± 0.44 mN/m | 47.81 ± 0.43 mN/m | 46.82 ± 0.43 mN/m | 47.33 ± 0.43 mN/m | – | – | – | – | – | – | –

From the NIST ThermoML archive (doi:10.1021/je500450w)
